Assay results from patent US20250017206A1, “METHODS FOR PREVENTING OR REDUCING BACTERIAL INFECTION OF PLANT SEEDS” (priority 2022, published 2025).
“Also recorded” adds a separate entry of the source.

What was measured:
[1] = test system: Acidovorax citrulli; assay: A. citrulli growth on LB agar growth medium containing tea, extracts or compounds; assay type: cell-based; details: for inhibition of A. citrulli (summary): compound alone in culture
Method: A. citrulli growth on LB agar medium was assessed after treatment with commercial brands of black and green teas and their constituent compounds to determine inhibitory effects. Dried loose tea leaves were boiled in distilled water, strained, and liquid added to LB agar growth medium to assess concentration effects. Five grams of loose-leaf tea was autoclaved in 200 mL distilled water for 25 minutes in the liquid cycle. After autoclaving, the tea was cooled to room temperature and filtered using Whatman #1 filter paper. The filtered tea was adjusted by spectrophotometry (DU 800, Beckman Coulter) to 4.0, 3.0, 2.0, 1.0, and 0.5 at OD390.
Luria Broth (LB) agar growth medium was prepared by mixing 10 grams of tryptone, 5 grams of yeast extract, and 10 grams of sodium chloride, and 15 grams of Bacto™ Agar Solidifying Agent (BD Diagnostics) in 1 liter of distilled water (pH: 7.5) before autoclaving. Collected bacteria were resuspended in autoclave-sterilized 10 mM MgCl2, and adjusted to 1.0, 0.5, 0.1, 0.01, and 0.001 OD600 spectrophotometry.
1 mL of each standard compound was added to 10 mL of LB agar growth medium.
Growth curve on growth medium containing inhibitory extracts and compounds to test whether Acidovorax citrulli could grow in the presence of green and black teas and some of their constituents, growth analysis was conducted in Petri dishes on solid LB agar containing tea or its extracts to quantitate bacterial growth inhibition. We also wanted to see whether tea and its constituents affected antibiotic resistance by comparing growth on both LB agar and Rifampicin containing LB agar. […] For the second stage, effects were verified by blotting 20 μL of inoculum with 9 1:10 serial dilutions to be able to count bacterial colonies. After growth medium solidified, 5 μL of bacterial inoculum adjusted at OD600: to 1.0, 0.5, 0.1, 0.01, or 0.001 (at first stage) and 20 μL of bacterial inoculum adjusted to OD600: 10^0, 10^−1, 10^−2, 10^−3, 10^−4, 10^−5, 10^−6, 10^−7, 10^−8, 10^−9 were blotted on the LB agar growth medium, containing tea samples or other extracts (1:10 mL). The Petri dishes inoculated with bacteria were incubated at 28° C. for 72 h in dark. Autoclaved distilled water was added to growth medium in a separate replicate with 5 μL of 10 mM MgCl2 and bacteria as a negative control. In order to check if additional distilled water affected bacterial growth, growth on LB medium with and without water was compared. Results were compared by colonies. When colonies could not be separated, bacterial growth was scored between 1 and 0 depending on the amount of growth on the surface of the blot.

[2] = test system: A. citrulli strain AAC00-1; details: components of cinnamon oil; Choi et al. (2016); cited from earlier work

For `Cn1c(=O)c2c(ncn2C)n(C)c1=O` [caffeine, reference compound], the “inhibition of A. citrulli (summary)” value [1] was “not inhibitory”.
For `Oc1cc(O)c2c(c1)O[C@H](c1cc(O)c(O)c(O)c1)[C@H](O)C2` [EGC, epigallocatechin, reference compound], the “bacterial growth at 1 mM EGC” value ([1]; 1 mM, bacteria OD600 0.1 and 0.01) was “efficient inhibitor; also recorded: inhibited bacterial growth on 0.1 dilution of bacteria”, the “bacterial growth at 0.5-1-1.5 mM EGC” value ([1]; AAC00-1 OD600 1.0-0.001, 0.5-1-1.5 mM) was “did not show inhibitory effects; also recorded: showed no inhibition” and the “minimum concentration required for inhibition” value ([1]; bacterial concentration OD600 0.001, AAC00-1) was 0.5 mM.
In the case of `O=C(O[C@@H]1Cc2c(O)cc(O)cc2O[C@@H]1c1ccc(O)c(O)c1)c1cc(O)c(O)c(O)c1` [ECG, epicatechin gallate, reference compound], the “bacterial growth at 0.5 mM” value ([1]; 0.5 mM, AA000-1, maximum bacterial concentration OD600 0.01) is reported as “inhibited bacterial growth” and the “bacterial growth at 1.5 mM” value ([1]; AAC00-1, 1.5 mM, bacterial OD600 1.0) is reported as “completely inhibitory; also recorded: inhibited all bacterial growth”.
For catechin, the “bacterial colony growth at 10 mM catechin” value ([1]; AAC00-1, 0.1, 1, 10 mM compared, only 10 mM inhibitory, with or without rifampicin) was “inhibitory; also recorded: inhibited bacterial growth”, the “effect of antibiotic presence on bacterial colony growth inhibition by catechin” value ([1]; AAC00-1, catechin 0.1, 1, 10 mM, with or without rifampicin 100 μg/mL) was “No difference” and the “bacterial growth at 5-10-15 mM” value ([1]; AAC00-1 OD600 1.0-0.001, 5-10-15 mM) was “inhibited all bacterial growth”. For the same molecule, the “inhibition of A. citrulli (summary)” value [1] was “strongly inhibitory”, the “bacterial colony growth at 1 mM” value ([1]; final concentration 1 mM in LB agar with rifampicin 100 μg/mL, M6, AAC00-1, aacI, aacR, OD600 1.0-0.001) was “inhibited A. citrulli; also recorded: inhibited some lower density colonies of bacteria” and the “bacterial colony growth at 10 mM” value ([1]; final concentration 10 mM in LB agar with rifampicin 100 μg/mL, M6, AAC00-1, aacI, aacR, OD600 1.0-0.001) was “inhibited A. citrulli; also recorded: completely inhibited bacterial growth; also recorded: inhibited growth of all bacterial strains”. The “less A. citrulli growth in catechin treatments compared to caffeine treatment” value ([1]; overall, 3-Way ANOVA, 95% significance level) was ~25% and the “inhibition of A. citrulli compared with black tea and caffeine” value ([1]; preliminary, data not shown) was “greater than black tea and caffeine”.
For `O=CC=Cc1ccccc1` [cinnamaldehyde], the “antibacterial activities against strain AAC00-1” value [2] is listed as “exhibited antibacterial activities”.
For `O=Cc1ccccc1` [benzaldehyde], the “antibacterial activities against strain AAC00-1” value [2] is given as “exhibited antibacterial activities”.
